Measurements from ChEMBL document CHEMBL2016558, “CB 1/2 dual agonists with 3-carbamoyl 2-pyridone derivatives as antipruritics: reduction of CNS side effects by introducing polar functional groups” (Bioorg Med Chem Lett, 2012).

Columns and labels:
Mus musculus [1] = assay: Toxicity in ICR mouse assessed as CB1-mediated spasm, rigor at 0.1 to 1 mg/kg, iv after 15 mins; assay type: organism-based; set-up: dose 0.1-1 mg/kg, route intravenous; settings: in vivo, 0.25 h
Cannabinoid receptor 1 = Cannabinoid receptor 1 (Homo sapiens, UniProt P21554); assay: Displacement of [3H]-CP55940 from recombinant human CB1 receptor by scatchard plot analysis
Chain of Cannabinoid receptor 1 (P21554 whole entry): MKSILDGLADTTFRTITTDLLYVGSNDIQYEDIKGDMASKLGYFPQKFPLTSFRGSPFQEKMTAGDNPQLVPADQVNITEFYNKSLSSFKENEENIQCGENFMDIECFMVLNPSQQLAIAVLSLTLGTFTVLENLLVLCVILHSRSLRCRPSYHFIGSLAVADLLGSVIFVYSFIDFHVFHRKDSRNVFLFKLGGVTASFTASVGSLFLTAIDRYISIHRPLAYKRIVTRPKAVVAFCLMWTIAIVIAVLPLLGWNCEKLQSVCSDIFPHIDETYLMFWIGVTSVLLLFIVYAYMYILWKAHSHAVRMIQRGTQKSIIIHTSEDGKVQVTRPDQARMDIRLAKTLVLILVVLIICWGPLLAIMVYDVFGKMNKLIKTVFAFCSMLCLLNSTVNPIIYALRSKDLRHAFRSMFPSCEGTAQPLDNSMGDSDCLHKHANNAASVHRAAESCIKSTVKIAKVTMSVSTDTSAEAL

Mus musculus [2] = assay: Toxicity in ICR mouse assessed as CB1-mediated moving sluggishly at 0.1 to 1 mg/kg, iv after 15 mins; assay type: organism-based; set-up: dose 0.1-1 mg/kg, route intravenous; settings: in vivo, 0.25 h
Mus musculus [3] = assay: Toxicity in ICR mouse assessed as CB1-mediated walking with lying on the belly at 0.1 to 1 mg/kg, iv after 15 mins; assay type: organism-based; set-up: dose 0.1-1 mg/kg, route intravenous; settings: in vivo, 0.25 h
Mus musculus [4] = assay: Toxicity in ICR mouse assessed as CB1-induced catalepsy at 0.1 to 1 mg/kg, iv after 15 mins; assay type: organism-based; set-up: dose 0.1-1 mg/kg, route intravenous; settings: in vivo, 0.25 h
Cannabinoid receptor 2 = Cannabinoid receptor 2 (Homo sapiens, UniProt P34972); assay: Displacement of [3H]-CP55940 from recombinant human CB2 receptor by scatchard plot analysis
Chain of Cannabinoid receptor 2 (P34972 whole entry): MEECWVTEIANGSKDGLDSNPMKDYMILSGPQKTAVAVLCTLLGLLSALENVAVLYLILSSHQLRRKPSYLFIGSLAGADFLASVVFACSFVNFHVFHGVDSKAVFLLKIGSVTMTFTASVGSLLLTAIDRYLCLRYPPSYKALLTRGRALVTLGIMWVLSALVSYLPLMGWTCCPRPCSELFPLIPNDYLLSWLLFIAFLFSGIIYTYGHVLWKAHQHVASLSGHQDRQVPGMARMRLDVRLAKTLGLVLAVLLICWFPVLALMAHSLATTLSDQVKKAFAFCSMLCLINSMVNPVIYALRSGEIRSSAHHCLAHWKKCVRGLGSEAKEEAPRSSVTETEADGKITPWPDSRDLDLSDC

Mus musculus [5] = assay: Toxicity in ICR mouse assessed as CB1-mediated stretching the without moving at 0.1 to 1 mg/kg, iv after 15 mins; assay type: organism-based; set-up: dose 0.1-1 mg/kg, route intravenous; settings: in vivo, 0.25 h
Mus musculus [6] = assay: Antipruritic activity in Crj:CD1 ICR mouse pruritic model assessed as inhibition of compound 48/80-induced scratching compound topically applied on the shaved back 15 mins prior challenge measured for 30 mins relative to control; assay type: functional
[7] = Ratio of drug level in brain to plasma in rat; assay type: ADME; settings: read-out: BPR

Compound: CC(C)(NC(=O)c1cc2c(n(CC3CCCCC3)c1=O)CCCCCC2)C(=O)NCCCCCO
- Activity (Mus musculus [1]): Toxic
- Ki (Cannabinoid receptor 1): 5.8 nM
- Activity (Mus musculus [2]): Toxic
- Activity (Mus musculus [3]): Toxic
- Activity (Mus musculus [4]): Toxic
- Ki (Cannabinoid receptor 2): 1.2 nM
- Activity (Mus musculus [5]): Toxic

Compound: CC(C)(NC(=O)c1cc2c(n(CC3CCCCC3)c1=O)CCCCCC2)C(=O)N1CCC(NS(C)(=O)=O)CC1
- Activity (Mus musculus [1]): Non-toxic
- Activity (Mus musculus [2]): Non-toxic
- Activity (Mus musculus [3]): Non-toxic
- Activity (Mus musculus [4]): Non-toxic
- Activity (Mus musculus [5]): Non-toxic

Compound: CC(C)(NC(=O)c1cc2c(n(CC3CCCCC3)c1=O)CCCCCC2)C(=O)NCCOCCO
- Activity (Mus musculus [1]): Toxic
- Ki (Cannabinoid receptor 1): 3.4 nM
- Activity (Mus musculus [2]): Toxic
- Activity (Mus musculus [3]): Toxic
- Activity (Mus musculus [4]): Toxic
- Ki (Cannabinoid receptor 2): 0.6 nM
- Activity (Mus musculus [5]): Toxic

Compound: CC(C)(NC(=O)c1cc2c(n(CC3CCCCC3)c1=O)CCCCCC2)C(=O)NNS(C)(=O)=O
- Activity (Mus musculus [1]): Non-toxic
- Ki (Cannabinoid receptor 1): 32 nM
- inhibition (INH) (Mus musculus [6]): 87%
- Activity (Mus musculus [2]): Non-toxic
- Kp [7]: 0.02
- Activity (Mus musculus [3]): Non-toxic
- Activity (Mus musculus [4]): Non-toxic
- Ki (Cannabinoid receptor 2): 7.3 nM
- Activity (Mus musculus [5]): Non-toxic

Compound: CC(C)(NC(=O)c1cc2c(n(CC3CCCCC3)c1=O)CCCCCC2)C(=O)NCC(N)=O
- Activity (Mus musculus [1]): Toxic
- Activity (Mus musculus [2]): Toxic
- Activity (Mus musculus [3]): Toxic
- Activity (Mus musculus [4]): Toxic
- Activity (Mus musculus [5]): Toxic

Compound: CC(C)(NC(=O)c1cc2c(n(CC3CCCCC3)c1=O)CCCCCC2)C(=O)NCC(=O)O
- Ki (Cannabinoid receptor 1): > 5000 nM
- Ki (Cannabinoid receptor 2): 2820 nM

Compound: CC(C)(NC(=O)c1cc2c(n(CC3CCCCC3)c1=O)CCCCCC2)C(=O)N1CCC(C(=O)NS(C)(=O)=O)CC1
- Ki (Cannabinoid receptor 1): 218 nM
- Ki (Cannabinoid receptor 2): 128 nM

Compound: CN(CCO)C(=O)C(C)(C)NC(=O)c1cc2c(n(CC3CCCCC3)c1=O)CCCCCC2
- Activity (Mus musculus [1]): Toxic
- Activity (Mus musculus [2]): Toxic
- Kp [7]: 0.28
- Activity (Mus musculus [3]): Toxic
- Activity (Mus musculus [4]): Toxic
- Ki (Cannabinoid receptor 2): 0.6 nM
- Activity (Mus musculus [5]): Toxic

Compound: COC(=O)C(C)(C)NC(=O)c1cc2c(n(CC3CCCCC3)c1=O)CCCCCC2
- Activity (Mus musculus [1]): Toxic
- Ki (Cannabinoid receptor 1): 1.7 nM
- Activity (Mus musculus [2]): Toxic
- Kp [7]: 3.35
- Activity (Mus musculus [3]): Toxic
- Activity (Mus musculus [4]): Toxic
- Ki (Cannabinoid receptor 2): 0.3 nM
- Activity (Mus musculus [5]): Toxic

Compound: CC(C)(NC(=O)c1cc2c(n(CC3CCCCC3)c1=O)CCCCCC2)C(=O)NN
- Activity (Mus musculus [1]): Toxic
- Ki (Cannabinoid receptor 1): 30 nM
- Activity (Mus musculus [2]): Toxic
- Activity (Mus musculus [3]): Toxic
- Activity (Mus musculus [4]): Toxic
- Ki (Cannabinoid receptor 2): 2.8 nM
- Activity (Mus musculus [5]): Toxic

Compound: CC(C)(NC(=O)c1cc2c(n(CC3CCCCC3)c1=O)CCCCCC2)C(=O)N1CCC(C(N)=O)CC1
- Activity (Mus musculus [1]): Toxic
- Ki (Cannabinoid receptor 1): 4.9 nM
- Activity (Mus musculus [2]): Toxic
- Activity (Mus musculus [3]): Toxic
- Activity (Mus musculus [4]): Toxic
- Ki (Cannabinoid receptor 2): 3 nM
- Activity (Mus musculus [5]): Toxic

Compound: CC(C)(NC(=O)c1cc2c(n(CC3CCCCC3)c1=O)CCCCCC2)C(=O)N1CCC(C(=O)O)CC1
- Ki (Cannabinoid receptor 1): 2970 nM
- Ki (Cannabinoid receptor 2): 377 nM

Compound: CC(=O)NCCNC(=O)C(C)(C)NC(=O)c1cc2c(n(CC3CCCCC3)c1=O)CCCCCC2
- Activity (Mus musculus [1]): Toxic
- Ki (Cannabinoid receptor 1): 4.7 nM
- Activity (Mus musculus [2]): Toxic
- Activity (Mus musculus [3]): Toxic
- Activity (Mus musculus [4]): Toxic
- Ki (Cannabinoid receptor 2): 2.5 nM
- Activity (Mus musculus [5]): Toxic

Compound: CN(C)CCNC(=O)C(C)(C)NC(=O)c1cc2c(n(CC3CCCCC3)c1=O)CCCCCC2
- Ki (Cannabinoid receptor 1): 242 nM
- Ki (Cannabinoid receptor 2): 81 nM

Compound: CC(C)(NC(=O)c1cc2c(n(CC3CCCCC3)c1=O)CCCCCC2)C(=O)N1CCC(O)CC1
- Activity (Mus musculus [1]): Toxic
- Ki (Cannabinoid receptor 1): 8 nM
- Activity (Mus musculus [2]): Toxic
- Activity (Mus musculus [3]): Toxic
- Activity (Mus musculus [4]): Toxic
- Ki (Cannabinoid receptor 2): 1.1 nM
- Activity (Mus musculus [5]): Toxic

Compound: CC(C)(NC(=O)c1cc2c(n(CC3CCCCC3)c1=O)CCCCCC2)C(=O)NCCCO
- Activity (Mus musculus [1]): Toxic
- Ki (Cannabinoid receptor 1): 6.3 nM
- Activity (Mus musculus [2]): Toxic
- Activity (Mus musculus [3]): Toxic
- Activity (Mus musculus [4]): Toxic
- Ki (Cannabinoid receptor 2): 1 nM
- Activity (Mus musculus [5]): Toxic
